# Laboratory results as given in patent US20210330672A1, “USE OF BCL6 INHIBITORS FOR TREATING AUTOIMMUNE DISEASES” (TEQLA THERAPEUTICS INC., priority 2018, published 2021).
# Legend:
# [1] = tested on: germinal centers of the spleen; test: IHC with PNA staining of spleen as a measure of germinal center activity in KLH-immunized mice; type: in vivo, C57BL/6 mice; settings: spleen Day 14; for Staining Intensity, Group Mean: PNA IHC, KLH + Vehicle group 2.4; for % PNA-Positive Staining of Germinal Center, Group Mean: KLH + Vehicle group 42%
# Description: (§1) Experimental animals: Female C57BL/6 mice were purchased from Envigo (Livermore, Calif.) to provide 8- to 10-week-old animals at the time of immunization. IgG measurements were performed using Innovative Research KLH IgG ELISA kit. Germinal center staining was performed on Dako autostainer using procedures well known in the art.
# (§2) On Day 0, animals of Groups 2-6 (n=10 each) were immunized by intraperitoneal (IP) injection with 0.2 mL (0.5 mg) per mouse of KLH, a dose determined to be optimal for IP administration without adjuvant. Mice from Group 1 (n=5) were sham-immunized by IP injection of 0.2 mL PBS per mouse.
# (§3) Starting on Day 0 (immediately post-immunization) and continuing through Day 13 (i.e., 14 days total), animals in Group 1, 2, and 4-6 were injected IP once daily (QD) with vehicle, 30 mg/kg Compound 1, 10 mg/kg Compound 1, or 100 mg/kg Compound 2; animals in Group 3 were injected IP once weekly (QW) with 50 mg/kg CP. All doses were administered by IP injection at 5 mL/kg at approximately the same time (±1 h) each day.
# (§4) On Day 14 (at approximately 24 hours after the final dose administration), all animals were subjected to terminal cardiocentesis and euthanized. Following clotting and processing, the resulting serum samples were flash-frozen and stored at −80° C. pending analysis by enzyme-linked immunosorbent assay (ELISA). The spleen was harvested from each mouse and split into two. One half of each spleen was collected for immunohistochemical (IHC) analysis of germinal center activity using peanut agglutinin (PNA) staining. Single-cell suspensions were collected from the other spleen halves and stored in DMSO cell-freezing medium. These samples were to be used for optional FACS analysis. Remaining tissues were discarded without further evaluation.
# (§5) Statistical analysis: Descriptive and inferential analyses were performed using the corresponding functions of Excel 2010 (Microsoft, Redmond, Wash.). Inferential analysis consisted of t-test comparisons (two-tailed, non-paired, heteroscedasticity assumed) between groups as indicated. Values of p<0.05 were considered statistically significant.
# Immunohistochemical (IHC) Staining with Peanut Agglutinin (PNA) as a Measure of Germinal Center Activity. IHC with PNA staining was used to determine the levels of positive staining in the germinal centers of the spleen.
# [2] = tested on: KLH-specific IgG; test: KLH-specific serum IgG (ELISA) after in vivo treatment of KLH-immunized mice; design: species or system C57BL/6 mice; settings: for Serum IgG Level, Day 14, Group Mean: KLH-immunized mice, KLH + Vehicle group 223879
# Description: as §1, §2, §3, §4, §5
# Results:KLH-specific IgG Levels. ELISA (performed as experimental replicates) was used to determine the levels of immunoglobulin G (IgG) specific for KLH in the terminal serum samples.
structure (smiles),measurement,setting,value
"O=P1(N(CCCl)CCCl)NCCCO1 (stereo not drawn) [CP, cyclophosphamide, reference compound]","Staining Intensity, Group Mean",[1]; 50 mpk IP once weekly,1.3
same,"% PNA-Positive Staining of Germinal Center, Group Mean",[1]; 50 mpk IP once weekly,29%
same,attenuation of immune response to KLH (serum IgG and PNA staining of splenic germinal centers),"[2]; 50 mg/kg, IP, once weekly over 14 days",nominal but non-significant attenuation
same,"Serum IgG Level, Day 14, Group Mean",[2]; 50 mpk IP once weekly over 14 days,161482 U/mL
"CNC(=O)COc1cc2cc(Nc3nc(N4C[C@H](C)C[C@H](C)C4)ncc3Cl)ccc2n(C)c1=O [Compound 1, 2-((6-((5-chloro-2-((3R,5S)-3,5-dimethylpiperidin-1-yl)pyrimidin-4-yl)amino)-1-methyl-2-oxo-1,2-dihydroquinolin-3-yl)oxy)-N-methylacetamide]","Staining Intensity, Group Mean",[1]; 10 mpk IP once daily,1.2
same,"Staining Intensity, Group Mean",[1]; 30 mpk IP once daily,1.5
same,"% PNA-Positive Staining of Germinal Center, Group Mean",[1]; 10 mpk IP once daily,12%
same,"% PNA-Positive Staining of Germinal Center, Group Mean",[1]; 30 mpk IP once daily,12%
same,"Serum IgG Level, Day 14, Group Mean",[2]; 10 mpk IP once daily Days 0-13,100997 U/mL
same,"Serum IgG Level, Day 14, Group Mean",[2]; 30 mpk IP once daily Days 0-13,103098 U/mL
"CNC(=O)COc1cc2cc(Nc3nc(N4CCC(C(=O)N(C)C)CC4)ncc3Cl)cc(OC)c2n(C)c1=O [Compound 2, 1-(5-chloro-4-((8-methoxy-1-methyl-3-(2-(methylamino)-2-oxoethoxy)-2-oxo-1,2-dihydroquinolin-6-yl)amino)pyrimidin-2-yl)-N,N-dimethylpiperidine-4-carboxamide]","Staining Intensity, Group Mean",[1]; 100 mpk IP once daily,1.1
same,"% PNA-Positive Staining of Germinal Center, Group Mean",[1]; 100 mpk IP once daily,7%
same,attenuation of immune response to KLH (reduced IgG levels and germinal center activity),"[2]; 100 mg/kg, IP, once daily over 14 days",highly significant attenuation
same,attenuation of immune response to KLH,"[2]; 10 or 30 mg/kg, IP, once daily over 14 days, no observable dose response",less significant attenuation
same,"Serum IgG Level, Day 14, Group Mean",[2]; 100 mpk IP once daily Days 0-13,41503 U/mL
